The record followed here is patent publication US10793557B2, “Sting agonist compounds” (Merck Sharp & Dohme Corp., priority 2018, dated 2020).

Experiment [1] has as its target T1, full-length HAQ STING (Homo sapiens, UniProt Q86WV6, G230A/H232R/R293Q/R71H).
T1 construct: AviTag (after GG linker) (C); HRV3C cleavage site (after GS linker) (C); HIS8 (C); made in house; host or cells: Trichoplusia ni (Hi-Five) insect cells infected with baculovirus (virus generated and amplified in Sf21 cells); used as a washed membrane preparation
The experiment is described as follows: 3H-cGAMP filtration binding assay (HAQ STING). The following applies: competition with tritiated cGAMP, HAQ STING membrane. Put shortly: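 Hi-Five (T. ni) membranes overexpressing the STING variant (2.2 ug/ml working) preincubated with compound 60 min at RT in PBS, then [3H]cGAMP (8 nM working stock) added for 60 min at RT. Bound radioactivity captured on GF/B filters and counted by scintillation; EC50 from 4-parameter fit of control-normalized activity.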

The subject of experiment [2] is secretion of interferon-beta from THP1 cells. The experiment in a line: IFN-β secretion in THP1 cell culture (5 h). Format: cell-based. The following applies: Homo sapiens, THP-1, 5 h, compound at 30 μM, 30 uM cGAMP = 100%, read-out: % Effect at 30 μM relative to 2′3′-cGAMP. Put shortly:
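Thawed THP1 cells (0.8×10^6/mL, RPMI with 0.5% FBS) exposed to compounds 1.5–30000 nM (0.3% DMSO) for 5 h at 37 °C. Supernatant IFN-β quantified by AlphaLISA. Percent effect normalised to 30 uM cGAMP and DMSO controls; EC50 from 4-parameter fit.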

The target in experiment [3] is T2, full-length WT STING (Homo sapiens, UniProt Q86WV6, H232R).
T2 construct: AviTag (after gg linker) (C); HRV3C cleavage site (after gs linker) (C); HIS8 (C); made in house; host or cells: Trichoplusia ni (Hi-Five) insect cells infected with baculovirus (virus generated and amplified in Sf21 cells); used as a washed membrane preparation
T2 sequence (Q86WV6 with tags, fused parts or gaps H232R): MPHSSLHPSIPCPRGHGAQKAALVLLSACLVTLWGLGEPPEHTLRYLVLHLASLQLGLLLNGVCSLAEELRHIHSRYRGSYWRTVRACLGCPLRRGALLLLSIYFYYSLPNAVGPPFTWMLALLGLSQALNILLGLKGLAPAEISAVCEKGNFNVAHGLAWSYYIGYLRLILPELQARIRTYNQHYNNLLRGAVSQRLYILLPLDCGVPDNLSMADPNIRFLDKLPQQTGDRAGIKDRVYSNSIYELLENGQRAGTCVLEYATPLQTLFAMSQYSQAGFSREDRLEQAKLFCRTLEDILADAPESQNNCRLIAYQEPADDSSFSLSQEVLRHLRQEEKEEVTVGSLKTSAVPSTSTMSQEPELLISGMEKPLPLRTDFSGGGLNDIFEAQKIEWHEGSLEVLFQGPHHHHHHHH
The experiment is described as follows: 3H-cGAMP filtration binding assay (WT STING). The note with it: competition with tritiated cGAMP, WT STING membrane. Put shortly:
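Competitive filtration binding of [3H]cGAMP (16 nM working stock) to T. ni membranes overexpressing full-length WT human STING, 60 min at RT in PBS. Bound radioactivity counted after GF/B filtration; 10-point 1:3 titration, EC50 from 4-parameter fit after control normalisation.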

T1 sequence (Q86WV6 with tags, fused parts or gaps R71H/G230A/H232R/R293Q): as the sequence (Q86WV6 with tags, fused parts or gaps H232R) above, with R71H, G230A, R293Q counted along it

Consider `COc1cc2sc(C(=O)CCC(=O)O)cc2cc1OCCCc1c(OC)cc2sc(C(=O)C[C@H](C)C(=O)O)cc2c1F` [Example 161, (S)-4-(5-(3-((2-(3-carboxypropanoyl)-6-methoxybenzo[b]thiophen-5-yl)oxy)propyl)-4-fluoro-6-methoxybenzo[b]thiophen-2-yl)-2-methyl-4-oxobutanoic acid], for which the EC50 (usually the concentration giving half of the maximal effect) in experiment [1] is 1 nM; in experiment [3], 4 nM. Moreover, the activation at 30 µM in experiment [2] was found to be 106%.

As to `COc1cc2sc(C(=O)C[C@H](C)C(=O)O)cc2cc1OCCCc1c(OC)cc2sc(C(=O)C[C@H](C)C(=O)O)cc2c1F` [Example 162, (S)-4-(5-(3-(2-((S)-3-carboxybutanoyl)-4-fluoro-6-methoxybenzo[b]thiophen-5-yl)propoxy)-6-methoxybenzo[b]thiophen-2-yl)-2-methyl-4-oxobutanoic acid], the EC50 was determined as 1 nM in experiment [1] and 4 nM in experiment [3]. For the same compound, the activation at 30 µM in experiment [2] is 98%.

Regarding `COc1cc2sc(C(=O)C[C@H](C)C(=O)O)cc2c(F)c1CCCOc1c(OC)cc2sc(C(=O)CCC(=O)O)cc2c1F` [Example 163, (S)-4-(5-(3-((2-(3-carboxypropanoyl)-4-fluoro-6-methoxybenzo[b]thiophen-5-yl)oxy)propyl)-4-fluoro-6-methoxybenzo[b]thiophen-2-yl)-2-methyl-4-oxobutanoic acid], the EC50 in experiment [1] and in experiment [3] was 1 nM in each case. Also, the activation at 30 µM in experiment [2] turned out to be 135%.

Consider `COc1cc2sc(C(=O)C[C@H](C)C(=O)O)cc2c(F)c1CCCOc1c(OC)cc2sc(C(=O)C[C@H](C)C(=O)O)cc2c1F` [Example 164, (S)-4-(5-(3-((2-((S)-3-carboxybutanoyl)-4-fluoro-6-methoxybenzo[b]thiophen-5-yl)oxy)propyl)-4-fluoro-6-methoxybenzo[b]thiophen-2-yl)-2-methyl-4-oxobutanoic acid], for which the EC50 in experiment [1] and in experiment [3] was 1 nM in each case. For the same compound, in experiment [2], the activation at 30 µM came out at 131%.

As to `COc1cc2sc(C(=O)CC(C)(C)C(=O)O)cc2c(F)c1OCCCOc1c(OC)cc2sc(C(=O)CC(C)(C)C(=O)O)cc2c1F` [Example 165, 4,4′-((propane-1,3-diylbis(oxy))bis(4-fluoro-6-methoxybenzo[b]thiophene-5,2-diyl))bis(2,2-dimethyl-4-oxobutanoic acid)], the EC50 in experiment [1] worked out at 2 nM; in experiment [3], 3 nM. In addition, in experiment [2], the activation at 30 µM stood at 21%.

With `COc1cc2sc(C(=O)C[C@H](C)C(=O)O)cc2cc1OCCCOc1cc2sc(C(=O)C[C@H](C)C(=O)O)cc2nc1OC` [Example 166, (S)-4-(5-(3-((2-((S)-3-carboxybutanoyl)-5-methoxythieno[3,2-b]pyridin-6-yl)oxy)propoxy)-6-methoxybenzo[b]thiophen-2-yl)-2-methyl-4-oxobutanoic acid], the figures for the EC50 in experiment [1] and in experiment [3] were 8 nM and 117 nM, respectively. In addition, in experiment [2], the activation at 30 µM was found to be 34%.

Consider `COc1cc2sc(C(=O)C[C@H](C)C(=O)O)cc2c(F)c1OCCCOc1cc2sc(C(=O)C[C@H](C)C(=O)O)cc2nc1OC` [Example 167, (S)-4-(6-(3-((2-((S)-3-carboxybutanoyl)-4-fluoro-6-methoxybenzo[b]thiophen-5-yl)oxy)propoxy)-5-methoxythieno[3,2-b]pyridin-2-yl)-2-methyl-4-oxobutanoic acid], for which the EC50 was determined as 4 nM in experiment [1] and 19 nM in experiment [3]. Moreover, the activation at 30 µM in experiment [2] came to 66%.

Consider `COc1cc2sc(C(=O)CCC(=O)O)cc2c(F)c1OCCCOc1cc2sc(C(=O)C[C@H](C)C(=O)O)cc2nc1OC` [Example 168, (S)-4-(6-(3-((2-(3-carboxypropanoyl)-4-fluoro-6-methoxybenzo[b]thiophen-5-yl)oxy)propoxy)-5-methoxythieno[3,2-b]pyridin-2-yl)-2-methyl-4-oxobutanoic acid], for which the EC50 in experiment [1] was determined as 13 nM; in experiment [3] it was 199 nM. Moreover, the activation at 30 µM in experiment [2] worked out at 102%.
